{"source": "paper PMC5309861", "about": "“Mechanistic insight into the substrate specificity of 1,2-β-oligoglucan phosphorylase from Lachnoclostridium phytofermentans” (Scientific Reports, 2017)", "target": "T1, LpSOGP (Lachnoclostridium phytofermentans, UniProt A9KJS6)", "T1 construct": "gene Cphy_0694", "T1 sequence (A9KJS6 1-1113)": "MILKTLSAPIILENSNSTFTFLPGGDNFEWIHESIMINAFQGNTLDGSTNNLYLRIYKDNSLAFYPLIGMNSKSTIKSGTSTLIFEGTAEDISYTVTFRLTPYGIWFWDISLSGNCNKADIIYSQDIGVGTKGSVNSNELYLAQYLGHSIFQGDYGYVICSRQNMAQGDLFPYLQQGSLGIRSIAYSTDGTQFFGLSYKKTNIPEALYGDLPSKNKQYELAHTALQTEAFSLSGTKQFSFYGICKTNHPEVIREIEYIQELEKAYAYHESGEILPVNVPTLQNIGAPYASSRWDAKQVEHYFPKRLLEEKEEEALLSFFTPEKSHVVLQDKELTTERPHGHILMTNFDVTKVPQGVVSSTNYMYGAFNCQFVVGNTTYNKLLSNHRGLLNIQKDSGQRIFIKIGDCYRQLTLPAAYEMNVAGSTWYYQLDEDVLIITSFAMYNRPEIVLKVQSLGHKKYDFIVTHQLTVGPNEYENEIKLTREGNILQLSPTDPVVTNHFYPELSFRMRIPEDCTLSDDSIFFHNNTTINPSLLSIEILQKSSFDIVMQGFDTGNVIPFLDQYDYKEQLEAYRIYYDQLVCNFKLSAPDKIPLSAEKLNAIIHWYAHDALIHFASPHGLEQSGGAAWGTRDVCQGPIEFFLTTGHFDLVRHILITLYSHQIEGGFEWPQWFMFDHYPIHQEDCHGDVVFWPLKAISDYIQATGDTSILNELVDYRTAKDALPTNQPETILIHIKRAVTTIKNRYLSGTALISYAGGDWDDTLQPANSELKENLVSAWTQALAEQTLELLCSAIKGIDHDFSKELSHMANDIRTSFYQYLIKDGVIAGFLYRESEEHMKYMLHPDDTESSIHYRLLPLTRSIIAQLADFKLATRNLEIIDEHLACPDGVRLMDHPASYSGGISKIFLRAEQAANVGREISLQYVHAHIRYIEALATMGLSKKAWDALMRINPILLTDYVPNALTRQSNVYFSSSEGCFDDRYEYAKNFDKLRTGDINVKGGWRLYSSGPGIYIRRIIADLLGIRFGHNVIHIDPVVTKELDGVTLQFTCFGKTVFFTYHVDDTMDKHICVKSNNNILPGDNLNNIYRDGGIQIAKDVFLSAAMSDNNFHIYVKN", "conditions": "phosphorolysis; pH 7.5, 30 °C; co-substrate oligosaccharide not stated", "from_the_text": "G1P release, coupled phosphoglucomutase / G6PDH assay, Michaelis-Menten fit on LpSOGP"}
{"compound": "O=P(O)(O)O", "note": "[Pi, inorganic phosphate]", "values": [{"measurement": "Synthesis / kcat/Km / (s^-1 mM^-1)", "result": "11 ± 1", "unit": "mM"}]}
